According to patent US8952024B2, “Herbicidal pyrimidone derivatives” (E I du Pont de Nemours and Company, priority 2009, dated 2015):

Legend:
Experiment in all cases: Test B pre-/postemergence plant response
Format in all cases: in vivo
[1] = tested on: Italian ryegrass (Lolium multiflorum)
How it was run: (§1)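 Compound in solvent + surfactant applied pre-em (loam/sand) or post-em (plants 2–18 cm, peat medium); greenhouse hold 13–15 days; visual 0–100 control score.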

[2] = tested on: bermudagrass (Cynodon dactylon)
How it was run: as §1

corn (Zea mays) = tested on: corn (Zea mays)
How it was run: as §1

[3] = tested on: downy bromegrass (Bromus tectorum)
How it was run: as §1

[4] = tested on: giant foxtail (Setaria faberii)
How it was run: as §1

[5] = tested on: goosegrass (Eleusine indica)
How it was run: as §1

[6] = tested on: green foxtail (Setaria viridis)
How it was run: as §1

[7] = tested on: johnsongrass (Sorghum halepense)
How it was run: as §1

[8] = tested on: large crabgrass (Digitaria sanguinalis)
How it was run: as §1

[9] = tested on: morningglory (Ipomoea coccinea)
How it was run: as §1

[10] = tested on: ragweed (common ragweed, Ambrosia elatior)
How it was run: as §1

[11] = tested on: woolly cupgrass (Eriochloa villosa)
How it was run: as §1

[12] = tested on: yellow nutsedge (Cyperus esculentus)
How it was run: as §1

[13] = 31 g ai/ha, postemergence, scale 0 to 100, 0 is no effect, 100 is complete control
[14] = 62 g ai/ha, postemergence, 0 is no effect, 100 is complete control, 13 to 15 days
[15] = Postemergence, 125 g ai/ha, visual rating after 13 to 15 days, scale 0 (no effect) to 100 (complete control)
[16] = Postemergence, 250 g ai/ha, scale 0 to 100 (0 no effect, 100 complete control)
[17] = Preemergence, 31 g ai/ha, scale 0 to 100 (0 no effect, 100 complete control)
[18] = Preemergence, 62 g ai/ha, scale 0 to 100 (0 no effect, 100 complete control)
[19] = Preemergence, 125 g ai/ha, scale 0 to 100, 0 no effect, 100 complete control
[20] = 250 g ai/ha, Preemergence, 0 to 100 scale

CCCCc1ncc(C(=O)C2=C(O)CCCC2=O)c(=O)n1-c1ccc(C)cc1 [Compound 67]
Plant response rating, Ryegrass, Italian [1, 13]: 0
Ryegrass, Italian plant response rating (0 to 100 scale) [1, 14]: 5
Plant response rating, Ryegrass, Italian [1, 15]: 5
Plant response rating, Ryegrass, Italian [1, 16]: 5
Plant response rating, Ryegrass, Italian [1, 17]: 0
Plant response rating, Ryegrass, Italian [1, 18]: 0
Plant response rating, Ryegrass, Italian [1, 19]: 0
Plant response rating, Bermudagrass [2, 13]: 35
Bermudagrass plant response rating (0 to 100 scale) [2, 14]: 70
Plant response rating, Bermudagrass [2, 20]: 100
Plant response rating, Bermudagrass [2, 15]: 70
Plant response rating, Bermudagrass [2, 16]: 85
Plant response rating, Bermudagrass [2, 17]: 45
Plant response rating, Bermudagrass [2, 18]: 90
Plant response rating, Bermudagrass [2, 19]: 95
Plant response rating, Corn (corn (Zea mays); [13]): 5
Corn plant response rating (0 to 100 scale) (corn (Zea mays); [14]): 10
Plant response rating, Corn (corn (Zea mays); [20]): 0
Plant response rating, Corn (corn (Zea mays); [15]): 65
Plant response rating, Corn (corn (Zea mays); [16]): 75
Plant response rating, Corn (corn (Zea mays); [17]): 0
Plant response rating, Corn (corn (Zea mays); [18]): 0
Plant response rating, Corn (corn (Zea mays); [19]): 0
Plant response rating, Bromegrass, Downy [3, 13]: 0
Bromegrass, Downy plant response rating (0 to 100 scale) [3, 14]: 0
Plant response rating, Bromegrass, Downy [3, 20]: 0
Plant response rating, Bromegrass, Downy [3, 15]: 0
Plant response rating, Bromegrass, Downy [3, 16]: 5
Plant response rating, Bromegrass, Downy [3, 17]: 0
Plant response rating, Bromegrass, Downy [3, 18]: 0
Plant response rating, Bromegrass, Downy [3, 19]: 0
Plant response rating, Foxtail, Giant [4, 13]: 75
Foxtail, Giant plant response rating (0 to 100 scale) [4, 14]: 80
Plant response rating, Foxtail, Giant [4, 20]: 65
Plant response rating, Foxtail, Giant [4, 15]: 85
Plant response rating, Foxtail, Giant [4, 16]: 90
Plant response rating, Foxtail, Giant [4, 17]: 0
Plant response rating, Foxtail, Giant [4, 18]: 0
Plant response rating, Foxtail, Giant [4, 19]: 45
Plant response rating, Goosegrass [5, 13]: 55
Goosegrass plant response rating (0 to 100 scale) [5, 14]: 55
Plant response rating, Goosegrass [5, 20]: 98
Plant response rating, Goosegrass [5, 15]: 65
Plant response rating, Goosegrass [5, 16]: 80
Plant response rating, Goosegrass [5, 17]: 85
Plant response rating, Goosegrass [5, 18]: 85
Plant response rating, Goosegrass [5, 19]: 90
Plant response rating, Foxtail, Green [6, 13]: 10
Foxtail, Green plant response rating (0 to 100 scale) [6, 14]: 80
Plant response rating, Foxtail, Green [6, 20]: 40
Plant response rating, Foxtail, Green [6, 15]: 80
Plant response rating, Foxtail, Green [6, 16]: 95
Plant response rating, Foxtail, Green [6, 17]: 0
Plant response rating, Foxtail, Green [6, 18]: 30
Plant response rating, Johnsongrass [7, 13]: 0
Johnsongrass plant response rating (0 to 100 scale) [7, 14]: 0
Plant response rating, Johnsongrass [7, 20]: 0
Plant response rating, Johnsongrass [7, 15]: 5
Plant response rating, Johnsongrass [7, 16]: 10
Plant response rating, Johnsongrass [7, 17]: 0
Plant response rating, Johnsongrass [7, 18]: 0
Plant response rating, Johnsongrass [7, 19]: 0
Plant response rating, Crabgrass, Large [8, 13]: 75
Crabgrass, Large plant response rating (0 to 100 scale) [8, 14]: 80
Plant response rating, Crabgrass, Large [8, 20]: 100
Plant response rating, Crabgrass, Large [8, 15]: 90
Plant response rating, Crabgrass, Large [8, 16]: 95
Plant response rating, Crabgrass, Large [8, 17]: 40
Plant response rating, Crabgrass, Large [8, 18]: 65
Plant response rating, Crabgrass, Large [8, 19]: 98
Plant response rating, Morningglory [9, 13]: 80
Morningglory plant response rating (0 to 100 scale) [9, 14]: 90
Plant response rating, Morningglory [9, 15]: 95
Plant response rating, Morningglory [9, 16]: 100
Plant response rating, Morningglory [9, 17]: 0
Plant response rating, Morningglory [9, 18]: 15
Plant response rating, Morningglory [9, 19]: 15
Plant response rating, Ragweed [10, 13]: 75
Ragweed plant response rating (0 to 100 scale) [10, 14]: 80
Plant response rating, Ragweed [10, 15]: 85
Plant response rating, Ragweed [10, 16]: 90
Plant response rating, Ragweed [10, 17]: 25
Plant response rating, Ragweed [10, 18]: 25
Plant response rating, Ragweed [10, 19]: 35
Plant response rating, Cupgrass, Woolly [11, 13]: 60
Cupgrass, Woolly plant response rating (0 to 100 scale) [11, 14]: 70
Plant response rating, Cupgrass, Woolly [11, 20]: 10
Plant response rating, Cupgrass, Woolly [11, 15]: 70
Plant response rating, Cupgrass, Woolly [11, 16]: 75
Plant response rating, Cupgrass, Woolly [11, 17]: 0
Plant response rating, Cupgrass, Woolly [11, 18]: 0
Plant response rating, Cupgrass, Woolly [11, 19]: 0
Plant response rating, Nutsedge, Yellow [12, 13]: 60
Nutsedge, Yellow plant response rating (0 to 100 scale) [12, 14]: 65
Plant response rating, Nutsedge, Yellow [12, 15]: 65
Plant response rating, Nutsedge, Yellow [12, 16]: 70
Plant response rating, Nutsedge, Yellow [12, 17]: 0
Plant response rating, Nutsedge, Yellow [12, 18]: 65
Plant response rating, Nutsedge, Yellow [12, 19]: 65
